The experiment relates to constituent cells in the peripheral nerve-mimicking microtissue. Nature of the experiment: Cytoprotection by NAC and DEX in suspension culture (LIVE/DEAD, immunofluorescence). The class given is cell-based. The conditions noted are these: 1 mM NAC, 3 days. An excerpt:
As a result of limitation in oxygen and nutrient exchange during the production process of peripheral nerve-mimicking microtissues, ROS accumulates in tissues, leading to cell damage and death. The Example is intended to present a cytoprotection method by dexamethasone (DEX) and N-acetylcysteine (NAC) to inhibit cell damage and death. PNSCs collected from the monolayer culture environment are suspended in a suspension culture medium at a density of 1.0E+06/mL. […] 1.0×10^5 cells per cm^2 area of a culture vessel is seeded in the ULA T75 flask (SPL Life Sciences) culture vessel. 1 mM NAC, 1 μM DEX, NAC and DEX were added simultaneously in 15 mL of suspension culture medium and cultured for 3 days. Cell death was assessed by LIVE/DEAD staining, and, for cell death, the survival rate was evaluated by calculating the total number of cells stained with DAPI and counting the number of cells that are positive for ethidium homodimer-1 (EthD-1). Moreover, the expression of p38 MAPK and cleaved caspase, which are factors that regulate cell death, and the degree of expression of p-Akt, an anti-cell death regulating factor, were evaluated through immunofluorescence staining.

Regarding `CC(=O)N[C@@H](CS)C(=O)O` [NAC, N-acetylcysteine], where the note is “1 μM DEX, or both in suspension culture medium”, the “cytoprotective effect on constituent cells in the microtissue (survival rate, LIVE/DEAD, EthD-1)” value is given as “protective effect”. Moreover, the “expression of Hif, p38 MAPK, and cleaved caspase (cell death proteins)” value (1 μM DEX, or both, immunofluorescence staining) is reported as “significantly inhibit”.
